These results are taken from ChEMBL document CHEMBL1131918, “Quantitative analysis of the kinetics of phospholipase A2 using fast atom bombardment mass spectrometry” (Bioorg Med Chem Lett, 1999).

Molecules are shown by their SMILES.

Data set [1] concerns phospholipase A2. Kind of data set: Michaelis -Menten constant against phospholipase A2 was determined. It is filed as ADME. As to conditions: phospholipase A2 enzyme.
Data set [2] can be described thus: Catalytic rate constant against phospholipase A2 was determined. It is filed as ADME.

For orientation: Km means the concentration of substrate that gives half-maximal velocity. In the case of `CCCCCCCCCC(=O)OCC(O)COP(=O)([O-])OCC[N+](C)(C)C` (centres undefined), in data set [1], the Km worked out at 2300 µM. The compound also gave a k cat in data set [2] of 1.03 µM/min/mg.
Regarding `CCCCCCCCCC(=O)OCC(COP(=O)([O-])OCC[N+](C)(C)C)OC(=O)CCCCCCCCC` (centres undefined), the Km in data set [1] amounted to 2400 µM. The compound further displayed a k cat in data set [2] of 1.06 µM/min/mg.
